The NIST ThermoML archive (doi:10.1021/je900550v)
Numbers after ± are expanded uncertainties.

Details: 101.33 kPa, Liquid; for speed of sound: Pulse-echo method; for mass density: Vibrating tube method

CCCC(=O)[O-].C[NH2+]CCO [N-methyl-2-hydroxyethylammonium butanoate]
Details	mass density [kg/m3]	speed of sound [m/s]	viscosity [mPa·s]
278.15 K	1052.71 ± 2.2	1683.5 ± 2.2	–
278.4 K	1052.55 ± 2.2	1682.5 ± 2.2	–
278.65 K	1052.38 ± 2.2	1681.5 ± 2.2	–
278.9 K	1052.21 ± 2.2	1680.6 ± 2.2	–
279.15 K	1052.04 ± 2.2	1679.6 ± 2.2	–
279.4 K	1051.88 ± 2.2	1678.7 ± 2.2	–
279.65 K	1051.71 ± 2.2	1677.7 ± 2.2	–
279.9 K	1051.54 ± 2.2	1676.8 ± 2.2	–
280.15 K	1051.38 ± 2.2	1675.8 ± 2.2	–
280.4 K	1051.21 ± 2.2	1674.8 ± 2.2	–
280.65 K	1051.04 ± 2.2	1673.9 ± 2.2	–
280.9 K	1050.88 ± 2.2	1673 ± 2.2	–
281.15 K	1050.71 ± 2.2	1672 ± 2.2	–
281.4 K	1050.54 ± 2.2	1671.1 ± 2.2	–
281.65 K	1050.38 ± 2.2	1670.1 ± 2.2	–
281.9 K	1050.21 ± 2.2	1669.2 ± 2.2	–
282.15 K	1050.02 ± 2.2	1668.4 ± 2.2	–
282.4 K	1049.85 ± 2.2	1667.4 ± 2.2	–
282.65 K	1049.69 ± 2.2	1666.6 ± 2.2	–
282.9 K	1049.52 ± 2.2	1665.7 ± 2.2	–
283.15 K	1049.35 ± 2.2	1664.8 ± 2.2	–
283.4 K	1049.19 ± 2.2	1663.8 ± 2.2	–
283.65 K	1049.02 ± 2.2	1663 ± 2.1	–
283.9 K	1048.85 ± 2.2	1662.1 ± 2.1	–
284.15 K	1048.68 ± 2.2	1661.2 ± 2.1	–
284.4 K	1048.52 ± 2.2	1660.3 ± 2.1	–
284.65 K	1048.35 ± 2.2	1659.4 ± 2.1	–
284.9 K	1048.18 ± 2.2	1658.5 ± 2.1	–
285.15 K	1048.02 ± 2.2	1657.7 ± 2.1	–
285.4 K	1047.85 ± 2.2	1656.8 ± 2.1	–
285.65 K	1047.68 ± 2.2	1655.9 ± 2.1	–
285.9 K	1047.52 ± 2.2	1655 ± 2.1	–
286.15 K	1047.35 ± 2.2	1654.2 ± 2.1	–
286.4 K	1047.18 ± 2.2	1653.3 ± 2.1	–
286.65 K	1047.01 ± 2.2	1652.4 ± 2.1	–
286.9 K	1046.85 ± 2.2	1651.6 ± 2.1	–
287.15 K	1046.68 ± 2.2	1650.7 ± 2.1	–
287.4 K	1046.51 ± 2.2	1649.9 ± 2.1	–
287.65 K	1046.34 ± 2.2	1649 ± 2.1	–
287.9 K	1046.17 ± 2.2	1648.1 ± 2.1	–
288.15 K	1046.01 ± 2.2	1647.3 ± 2.1	609.15 ± 100
288.4 K	1045.84 ± 2.2	1646.5 ± 2.1	–
288.65 K	1045.67 ± 2.2	1645.6 ± 2.1	–
288.9 K	1045.5 ± 2.2	1644.8 ± 2.1	–
289.15 K	1045.34 ± 2.2	1643.9 ± 2.1	–
289.4 K	1045.17 ± 2.2	1643 ± 2.1	–
289.65 K	1045 ± 2.2	1642.2 ± 2.1	–
289.9 K	1044.83 ± 2.2	1641.4 ± 2.1	–
290.15 K	1044.66 ± 2.2	1640.5 ± 2.1	516.28 ± 82
290.4 K	1044.5 ± 2.2	1639.7 ± 2.1	–
290.65 K	1044.33 ± 2.2	1638.9 ± 2.1	–
290.9 K	1044.16 ± 2.2	1638 ± 2.1	–
291.15 K	1043.99 ± 2.2	1637.2 ± 2.1	–
291.4 K	1043.82 ± 2.2	1636.3 ± 2.1	–
291.65 K	1043.65 ± 2.2	1635.5 ± 2.1	–
291.9 K	1043.48 ± 2.2	1634.7 ± 2.1	–
292.15 K	1043.32 ± 2.2	1633.9 ± 2.1	–
292.4 K	1043.15 ± 2.2	1633.1 ± 2.1	–
292.65 K	1042.98 ± 2.2	1632.3 ± 2.1	–
292.9 K	1042.81 ± 2.2	1631.5 ± 2.1	–
293.15 K	–	1630.6 ± 2.1	433.8 ± 64
